Residues, ends and D or L forms follow the SMILES beside them. *: point of attachment. Boc = CC(C)(C)OC(=O)*; Bn = c1ccc(C*)cc1
| melting point | SMILES |
| --- | --- |
| 192 to 194 °C | COc1cc(-c2ccccc2F)c(Cl)cc1C(=O)N1Cc2ccc(C(=O)N(CC(O)CO)CC(O)C(O)CO)n2Cc2ccccc21 (stereo not given) |
| 227 to 228 °C | CCOC(=O)CCC1(NC(=O)c2ccc(Cl)c(Cl)c2)C(=O)Nc2ccccc21 (stereo not given) |
| 77 °C | O=C(O)C1=CC2=CCCC=C2Sc2c1ccc1c2CCC1 |
| 191 to 194 °C | CCOc1nc(-c2ccc(F)cc2C)c2c(n1)N(c1c(F)cccc1F)C(=O)NC2 |
| 105 to 106 °C | CCCCCCC(=O)CC(C)=O |
| 80 to 81 °C | CN(C)CCC(=O)Nc1cccc([N+](=O)[O-])c1 |
| 121 to 124 °C | CC(C)c1ccc(C2(OC(=O)C(C)(C)C)C(=O)c3ccccc3C2=O)c(OC(=O)C(C)(C)C)c1 |
| 122 to 124 °C | COc1ccc(F)c(C(N)=O)c1 |
| 125 to 127 °C | O[C@H](COc1ccccc1C=Cc1nc2ccccc2s1)CN1CCC(c2ccc3ccccc3c2)CC1 |
| 233 to 234 °C | COc1ccc2c(c1)CCc1c-2cc(-c2ccccc2)n1-c1ccc(O)c(C(=O)O)c1 |
| 95 to 99 °C | Cc1cc(F)ccc1-c1nc(OCC(N)S(C)(=O)=O)nc2c1ccc(=O)n2-c1c(F)cccc1F (stereo not given) |
| 142 to 143 °C | CSc1cn(C(c2ccccc2)(c2ccccc2)c2ccccc2)c(F)n1 |
| 97 to 99 °C | COCc1c(-c2ccncc2)[nH]c(-c2ccncc2)c1C(=O)OC |
| > 200 °C | c1ccc(CN2CC3(COc4cc5c(cc43)CCO5)c3c(-c4cccnc4)cccc32)nc1 (stereo not given) |
| 175 to 177 °C | C[C@H](CNc1nc(Cl)nc2c1ncn2[C@@H]1O[C@H](CO)[C@@H](O)[C@H]1O)Oc1ccccc1 |
| 159 to 160 °C | COc1ccc(S(=O)(=O)Nc2c(Nc3ccccc3)ncnc2OC)cc1 |
| 160 to 163 °C | CN(C)c1c(F)c(F)c(F)c2c1c(=O)c(C(=O)O)cn2C1CC1 |
| 185 to 190 °C | CCOC1=NS(=O)(=O)c2cc(I)ccc21 |
| 160 to 165 °C | Cc1sc(N)nc1-c1ccc(CCN2CCN(c3cccc4ccccc34)CC2)cc1 |
| 94.5 to 95.5 °C | CC[C@H](C)[C@H](NC(=O)[C@H](Cc1ccccc1)NC(=O)OCc1ccccc1)C(=O)OC |
| 253 to 254 °C | O=C1CC2(C(=O)N1)C(=O)N(Cc1ccc(Cl)c(Cl)c1)c1ccc(F)cc12 (stereo not given) |
| 165 to 167 °C | NC(=O)CCC(C(=O)O)N1C(=O)c2cccc(N)c2C1=O (stereo not given) |
| 85 to 88 °C | CCOc1cc(OC)c(C(=O)C=Cc2ccc(OC)cc2)c(OP(=O)(O)O)c1 |
| 166 to 168 °C | CC(C)C1(C)N=C(c2ccc(C(C)(C)O)cn2)NC1=O (stereo not given) |

| melting point | SMILES |
| --- | --- |
| 125 to 127 °C | O=C1OCCC12Sc1ccccc1C2=O (stereo not given) |
| 89 °C | CC(=O)Nc1ccccc1SCc1ncon1 |
| 102 to 145 °C | NC1CCc2ccccc2C1NC(=O)OCc1ccccc1 (stereo not given) |
| 186 to 188 °C | CCN1C(=O)Cc2cc3c(cc21)C(=O)c1ccccc1CO3 |
| 168 to 170 °C | O=C(NCCN1CCOCC1)NCc1ccc2c(c1)Cc1c(-c3ccsc3)n[nH]c1-2 |
| 207 °C | O=C(O)CC[C@H](NC(=O)c1cc2ccccc2[nH]1)C(=O)NC(c1ccc(Cl)cc1)c1ccc(Cl)cc1 |
| 175 to 180 °C | CC(C)(Oc1ccc(OC(CCC(F)(F)F)c2cccc3c2cnn3-c2ccc(C(F)(F)F)cc2)cc1)C(=O)O (racemic) |
| 53 to 55 °C | C=CCOc1cccc(-n2cnc(C(=O)OCC)c2)c1 |
| 120 °C | O[C@@H]1[C@H](O)[C@H](O)CO[C@H]1n1c(Br)nc2cc(Cl)ccc21 |
| 139 °C | COc1ccc(CCN(C)CCOc2ccc(NC(=O)c3cccc4c(=O)c5ccccc5n(C)c34)cc2)cc1OC |
| 172 to 174 °C | CCOc1cc2c(cc1OCC)-c1c(C#N)sc(=O)n1CC2 |
| 137 to 142 °C | CSC1C(=O)Nc2ccc(Oc3ccc(F)c(C(F)(F)F)c3Cl)cc21 (stereo not given) |
| 154 to 156 °C | CCOC(=O)N1c2cc(OC)c(OC)cc2C(=O)C(=CNC)C1C (stereo not given) |
| 273 °C | CC(=O)Nn1cnc2c(Br)csc2c1=O |
| 198 to 199 °C | CCCCOC1c2ccccc2C(=O)N(CC2CC2)C1(/C=C/C(N)=O)CNC(=O)OC(C)(C)C (stereo not given) |
| 170 to 172 °C | O=C(Nc1ccc(CCCc2nnn[nH]2)cc1)C(F)(F)C(F)(F)C(F)(F)C(F)(F)C(F)(F)C(F)(F)C(F)(F)F |
| 191 to 194 °C | Cc1ccc(S(=O)(=O)CNc2nc(C)cc(C)n2)cc1 |
| 100 °C | Cc1ccc(COC(=O)C(=O)OCc2ccc(C)cc2)cc1 |
| 140 °C | CCc1ccc(C=CC(=O)O)cc1 |
| 105 to 107 °C | CC(C)(C)OC(=O)/C=C1\CCc2cccc3c2N1CC3 |
| 163 °C | CCOc1nn(C(=O)NS(=O)(=O)c2c(C(=O)OC)csc2C)c(=O)n1C |
| 275 to 277 °C | CCc1[nH]n(-c2c(Cl)cc(Cl)cc2Cl)c2nc(Cc3ccc(-c4ccc(OC)cc4)cc3)nc(=O)c1-2 |
| 221 to 224 °C | C=C1SC(=O)N(c2ccc3cc(-c4ccc(OC)c(-c5ccccc5)c4)ccc3c2)C1=O |

The remaining lines, values behind:

| SMILES | melting point |
| --- | --- |
| COc1ccc(C(=O)c2ccc(Br)s2)cc1 | 97 to 99 °C |
| C[C@@H](C(=O)Nc1ccc(-n2nc(C(F)(F)F)cc2C2CC2)cc1)n1nnc2cccnc21 | 186 to 191 °C |
| NNS(=O)(=O)c1cccc2cccnc12 | 135 to 137 °C |
| CCCN(CCC)Cc1nc(-c2ncn3c2[C@@H]2CCCN2C(=O)c2cc(F)ccc2-3)no1 | 222 to 225 °C |
| Nc1cc(I)ccc1Nc1cccc(-c2cncnc2)c1 | 166 to 169 °C |
| Cc1nn(-c2ccc(C(F)(F)F)cn2)cc1COc1cc(/C=C/C(=O)O)n(C)n1 | 208 to 209 °C |
| CC(=O)NC(Cc1ccc(Cl)c(Cl)c1)C(=O)CCc1cc(C(F)(F)F)cc(C(F)(F)F)c1 (stereo not given) | 124 to 126 °C |
| CN1C(=O)C(C)(C)C(=O)Nc2cc(C#N)ccc21 | 289 to 294 °C |
| CCOC(=O)Nc1ccc(C2=NN(c3nnc(C)s3)[C@H](C)Cc3cc4c(cc32)OCO4)cc1C | 241 to 244 °C |
| CC(C)(C)c1cc(C(=O)Nc2ccc(Cl)c(C(=O)O)c2)cc(C(C)(C)C)c1O | 265 to 267 °C |
| FCC1(CF)OC1(CBr)c1cc(C(F)(F)F)ccc1Cl (stereo not given) | 54 to 55 °C |
| O=C(c1ccccc1)N1CCN(CCCN2C(=O)c3ccccc3C2=O)CC1 | 100 to 104 °C |
| CC(C)c1c(OCCNC(=O)OC(C)(C)C)noc1-c1cccs1 | 94 to 95 °C |
| CC(C)(OCc1cc2cc(Cl)ccc2n1S(=O)(=O)c1ccc2c(c1)OCCO2)C(=O)O | 156 to 158 °C |
| CC(=O)Oc1cc2c(cc1C(C)(C)C)OC(C)(COc1ccc([N+](=O)[O-])cc1)CC2=O (stereo not given) | 82 to 84 °C |
| CC12CCC(=O)C=C1CCC1C3CC(OCCOC4CCCCO4)C(O)(C(=O)CO)C3(C)CC(O)C12F (stereo not given) | 196 to 200 °C |
| Cc1cccc(C2=C(c3cn(C)c4ccccc34)C(=O)NC2=O)c1 | 243 °C |
| O=c1[nH]c2ccccc2c(=O)n1-c1ccc(Cl)cc1 | 288 to 290 °C |
| COC(=O)C(CC(C)C)NC(=O)C(C)NC(=O)C(Cc1ccc(OCc2ccccc2)cc1)NC(=O)C(COCc1ccccc1)NC(=O)OC(C)(C)C (stereo not given) (Boc-S(Bn)Y(Bn)AL-OMe; configuration not given here) | 67 to 71 °C |
| COc1cccc(C(=O)Nc2ccc3ccc(Cl)nc3n2)c1 | 178 °C |
| COc1cc(CC(=O)O)ccc1OCCc1ccccc1 | 97 to 100 °C |
| COc1cc(OC)c(-c2nc3ncccc3[nH]2)s1 | 93 to 96 °C |
| COc1ccc(C(O)CNCc2cccc([N+](=O)[O-])c2)cc1OC (stereo not given) | 105 to 107 °C |
| CCCOc1ccc(OC)cc1-c1ncc(C(=O)O)c(=O)[nH]1 | 185 to 187 °C |

| SMILES | melting point |
| --- | --- |
| C=CCN1CCc2cc(OC)c(OC)c3c2C1Cc1cc(OC)c(OC)cc1-3 (single isomer, unassigned; (+)) | 139 to 143 °C |
| CCCCOC(=O)C(=O)Nc1nc2ccccc2s1 | 137 to 138 °C |
| CC(=O)C(Cc1ccccc1)Nc1nc2ccc(C(C)C)cc2s1 (stereo not given) | 107 to 110 °C |
| COC(=O)c1ccc(-c2nc(-c3ccc4c(c3)C(C)(C)CCC4(C)C)cs2)cc1 | 138 to 140 °C |
| O=C1OC(CN2CCC(n3c(=O)[nH]c4ccccc43)CC2)CN1c1ccccc1 (stereo not given) | 210 to 212 °C |
| COc1nc2ccc(Br)cc2c2c1C(C)(OCC(O)Cn1ccc(-c3ccc(C(F)(F)F)cc3)n1)c1ccccc1-2 (stereo not given) | 65 to 67 °C |
| COc1ccc(S(=O)(=O)c2ccc3cc(Br)ccc3c2)cc1 | 180 to 181 °C |
| CN(C)CCOC(c1ccccc1)c1ccc(C(=O)NCCCCn2cnc3c(N)nc4ccccc4c32)cc1 (stereo not given) | 110 to 114 °C |
| O=C(NCc1ccccc1)c1cc(N2CCN(Cc3ccc(F)cc3)C2=O)n[nH]1 | 262 to 263 °C |
| CCn1cc[nH]c(=O)c1=O | 173 to 174 °C |
| CCOC(=O)NC(CCSC)C(N)=O (racemic) | 110 to 112 °C |
| CCN(CC)C(=O)SC1(C(=O)N(CC)CC)C=CC=NC1F (stereo not given) | 87 to 88 °C |
| CCc1cc2ccccn2c1C(=O)c1cc(Cl)c(O)c(Cl)c1 | 206 °C |
| COC(=O)CC(C(=O)OC)c1ccccc1 (stereo not given) | 54 to 56 °C |
| CS(=O)(=O)Nc1ccc(C=O)cc1Oc1ccc(F)cc1F | 156 to 157 °C |
| Cc1nn(-c2ccccn2)c2[nH]c3ccc(C(F)(F)F)cc3c(=O)c12 | 250 to 251 °C |
| N#CC1=C(C2CCC2)Nc2n[nH]cc2C1c1cccc(C#N)c1Br (stereo not given) | 278 °C |
| [N-]=[N+]=Nc1nc(N)c2ncn(COCCO)c2n1 | 191 to 192 °C |
| COc1cc(/C=C/C(=O)NCCN2CCC(c3c[nH]c4ccccc34)CC2)ccc1O | 115 to 135 °C |
| CN(Cc1cccs1)C(=O)C1CC2C=CC1C2 (stereo not given) | 74 to 75 °C |
| Cn1c(C(F)(F)F)cc(=O)n(-c2ccc3snc(COCC(=O)O)c3c2)c1=O | 191 to 192 °C |
| O=C(C=Cc1ccc(Cl)cc1)N1CCN(c2ccc(OC[C@H]3CO[C@](Cn4cncn4)(c4ccc(Cl)cc4Cl)O3)cc2)CC1 (relative stereo) | 185 °C |
| Oc1ccc2c(c1)CCC(CCN1CCCCC1)C2 (stereo not given) | 154 to 157 °C |
| Cc1nnc2n1-c1sc(CCc3ccc(Cl)cc3)cc1C(c1ccccc1Cl)=NC2 | 162 to 164 °C |
